# From ChEMBL document CHEMBL3414557, “Synthesis, molecular docking and Brugia malayi thymidylate kinase (BmTMK) enzyme inhibition study of novel derivatives of [6]-shogaol” (Eur J Med Chem, 2015)
# Activity calls are given as the source filed them. The calls are words filed in the database; no cut-off is given here.
# Key:
# [1] = (§1) Inhibition of Brugia malayi thymidylate kinase using dTMP substrate by spectrophotometric assay
# [2] = tested on: Brugia malayi; experiment: as §1
smiles,measurement,setting,value
CCCCCC(CC(=O)CCc1ccc(OC(=O)c2ccc(OC)cc2)c(OC)c1)n1cc(C)c(=O)n(C(=O)c2ccc(OC)cc2)c1=O (centres undefined),Ki,[1],20.1 µM
CCCCCC(CC(=O)CCc1ccc(OC(=O)c2ccco2)c(OC)c1)n1cc(C)c(=O)n(C(=O)c2ccco2)c1=O (centres undefined),Ki,[1],20.3 µM
CCCCCC(CC(=O)CCc1ccc(O)c(OC)c1)Nc1ncccc1C (centres undefined),Ki,[1],11.1 µM
CCCCCC(CC(=O)CCc1ccc(O)c(OC)c1)n1cc(C)c(=O)[nH]c1=O (centres undefined),Ki,[1],6.57 µM
CCCCC/C=C/C(=O)CCc1ccc(O)c(OC)c1 [SHOGAOL],Ki,[1],10.8 µM
CCCCCC(CC(=O)CCc1ccc(OC(=O)/C=C/c2ccc(F)cc2)c(OC)c1)n1cc(C)c(=O)[nH]c1=O (centres undefined),Ki,[1],44.4 µM
CCCCCC(CC(=O)CCc1ccc(OS(C)(=O)=O)c(OC)c1)n1cc(C)c(=O)[nH]c1=O (centres undefined),Ki,[1],66.1 µM
CCCCCC(CC(=O)CCc1ccc(O)c(OC)c1)Nc1cc(C)ccn1 (centres undefined),Ki,[1],21.6 µM
CCCCCC(CC(=O)CCc1ccc(O)c(OC)c1)Nc1ccc(C)cn1 (centres undefined),Ki,[1],40.6 µM
CCCCCC(CC(=O)CCc1ccc(OC(=O)c2ccc(Cl)nc2)c(OC)c1)n1cc(C)c(=O)[nH]c1=O (centres undefined),inhibition,[2],inactive
CCCCCC(CC(=O)CCc1ccc(OC(=O)c2ccc(Cl)nc2)c(OC)c1)Nc1cc(C)ccn1 (centres undefined),Ki,[1],30.4 µM
CCCCCC(CC(=O)CCc1ccc(O)c(OC)c1)n1cnc2c(N)ncnc21 (centres undefined),Ki,[1],9.01 µM
CCCCCC(CC(=O)CCc1ccc(OS(=O)(=O)c2ccc(C)cc2)c(OC)c1)n1cc(C)c(=O)[nH]c1=O (centres undefined),Ki,[1],45.7 µM
CCCCCC(CC(=O)CCc1ccc(O)c(OC)c1)n1cc(Br)c(=O)[nH]c1=O (centres undefined),Ki,[1],8.32 µM
